# From US20150031572A1, “MEANS AND METHODS FOR ASSESSING NEURONAL TOXICITY” (priority 2012, published 2015)
# Where a name gives a salt, the structure may show the parent alone. Marks after values point to notes of the source that are not given here.
# Test: Plasma metabolite profiling (GC-MS, LC-MS, SPE-LC-MS) of rats dosed once daily over 28 days; treatment ratios versus untreated control
# Assay type: in vivo, rat
# Method: A group of each 5 male and female rats was dosed once daily with the indicated compounds (see Table 10, below for compounds, applied doses and administration details) over 28 days.
# Each dose group in the studies consisted of five rats per sex. Additional groups of each 5 male and female animals served as controls. Before starting the treatment period, animals, which were 62-64 days old when supplied, were acclimatized to the housing and environmental conditions for 7 days. All animals of the animal population were kept under the same constant temperature (20-24±3° C.) and the same constant humidity (30-70%). The animals of the animal population were fed ad libitum. The food to be used was essentially free of chemical or microbial contaminants. Drinking water was also offered ad libitum. Accordingly, the water was free of chemical and microbial contaminants as laid down in the European Drinking Water Directive 98/83/EG. The illumination period was 12 hours light followed by 12 hours darkness (12 hours light, from 6:00 to 18:00, and 12 hours darkness, from 18:00 to 6:00). […] The test substances (compounds) in the Tables 1 to 9 below were dosed and administered as described in the Table 10 above.
# In the morning of day 7, 14, and 28, blood was taken from the retro-orbital venous plexus from fasted anaesthetized animals. From each animal, 1 ml of blood was collected with EDTA as anticoagulant. The samples were centrifuged for generation of plasma. All plasma samples were covered with a N2 atmosphere and then stored at −80° C. until analysis.
# For mass spectrometry-based metabolite profiling analyses plasma samples were extracted and a polar and a non-polar (lipid) fraction was obtained. For GC-MS analysis, the non-polar fraction was treated with methanol under acidic conditions to yield the fatty acid methyl esters. Both fractions were further derivatised with O-methyl-hydroxyamine hydrochloride and pyridine to convert Oxogroups to O-methyloximes and subsequently with a silylating agent before analysis. In LC-MS analysis, both fractions were reconstituted in appropriate solvent mixtures. HPLC was performed by gradient elution on reversed phase separation columns. Mass spectrometric detection which allows target and high sensitivity MRM (Multiple Reaction Monitoring) profiling in parallel to a full screen analysis was applied as described in WO2003073464.
# Steroids and their metabolites were measured by online SPE-LC-MS (Solid phase extraction-LC-MS).
# Following comprehensive analytical validation steps, the data for each analyte were normalized against data from pool samples. These samples were run in parallel through the whole process to account for process variability. The significance of treatment group values specific for sex, treatment duration and metabolite was determined by comparing means of the treated groups to the means of the respective untreated control groups using WELCH-test and quantified with treatment ratios versus control and p-values.
# The identification of the most important biomarkers per toxicity pattern was done by a ranking of the analytes in the tables below. Therefore the metabolic changes in reference treatments of a given pattern (shown in the table) were compared with changes of the same metabolite in other unrelated treatments. […] The maximum absolute value of the respective TVALUE was taken to indicate the most important metabolite for the pattern.
# [1] = plasma, female rats, day 7, high dose, Table 5a
# [2] = plasma, female rats, day 7, high dose, Table 5b
# [3] = plasma, female rats, day 7, high dose, Table 6c
# [4] = plasma, female rats, day 7, high dose, Table 6d
# [5] = plasma, female rats, day 14, high dose, Table 5a
# [6] = plasma, female rats, day 14, high dose, Table 5b
# [7] = plasma, female rats, day 14, high dose, Table 6c
# [8] = plasma, female rats, day 14, high dose, Table 6d
# [9] = plasma, female rats, day 28, high dose, Table 5a
# [10] = plasma, female rats, day 28, high dose, Table 5b
# [11] = plasma, female rats, day 28, high dose, Table 6c
# [12] = plasma, female rats, day 28, high dose, Table 6d
structure (smiles),measurement,setting,value
OCCOCCN1CCN(C2=Nc3ccccc3Sc3ccccc32)CC1 [Quetiapine fumarate],"3-Hydroxybutyrate, ratio versus control",[1],1.49*
same,"Histidine, ratio versus control",[1],1.31*
same,"Isoleucine, ratio versus control",[1],1.9*
same,"Leucine, ratio versus control",[1],1.98*
same,"Valine, ratio versus control",[1],1.49*
same,"4-Hydroxy-3-methoxyphenylglycol (HMPG), ratio versus control",[2],0.73*
same,"Glucose, ratio versus control",[2],0.94
same,"Lactate, ratio versus control",[2],0.45*
same,"Malate, ratio versus control",[2],0.67*
same,"Metanephrine, ratio versus control",[2],0.55*
same,"Pyruvate, ratio versus control",[2],0.37*
same,"Uric acid, ratio versus control",[2],0.92
same,"4-Hydroxysphinganine (t18:0, Phytosphingosine), total, ratio versus control",[3],1.03
same,"Docosahexaenoic acid (C22:cis[4,7,10,13,16,19]6), ratio versus control",[3],1.67*
same,"Docosapentaenoic acid (C22:cis[7,10,13,16,19]5), ratio versus control",[3],1.98*
same,"Phosphatidylcholine (C16:0,C16:0), ratio versus control",[3],1.11*
same,"Phosphatidylcholine No 02, ratio versus control",[3],1.05
same,"TAG (C16:0,C16:1), ratio versus control",[3],2.83*
same,"TAG (C16:0,C18:2), ratio versus control",[3],2.65*
same,"TAG (C18:2,C18:2), ratio versus control",[3],1.99*
same,"TAG (C18:2,C18:3), ratio versus control",[3],1.83*
same,"TAG (C18:3,C18:2,C18:1), ratio versus control",[3],2.04*
same,"TAG No 059, ratio versus control",[3],2.1*
same,"4-Hydroxyphenylpyruvate, ratio versus control",[4],0.61*
same,"Glycine, ratio versus control",[4],0.82*
same,"Lactate, ratio versus control",[4],0.45*
same,"Lysophosphatidylcholine (C16:0), ratio versus control",[4],0.97*
same,"Uric acid, ratio versus control",[4],0.92
same,"3-Hydroxybutyrate, ratio versus control",[5],1.55*
same,"Leucine, ratio versus control",[5],1.44*
same,"Valine, ratio versus control",[5],1.24*
same,"4-Hydroxy-3-methoxyphenylglycol (HMPG), ratio versus control",[6],0.67*
same,"Glucose, ratio versus control",[6],0.87*
same,"Lactate, ratio versus control",[6],0.61*
same,"Malate, ratio versus control",[6],0.66*
same,"Metanephrine, ratio versus control",[6],0.26*
same,"Pyruvate, ratio versus control",[6],0.33*
same,"Uric acid, ratio versus control",[6],0.64*
same,"Docosahexaenoic acid (C22:cis[4,7,10,13,16,19]6), ratio versus control",[7],1.58*
same,"Docosapentaenoic acid (C22:cis[7,10,13,16,19]5), ratio versus control",[7],2.01*
same,"Palmitic acid (C16:0), ratio versus control",[7],1.24*
same,"Phosphatidylcholine (C16:0,C16:0), ratio versus control",[7],1.2*
same,"TAG (C16:0,C16:1), ratio versus control",[7],2.16*
same,"TAG (C16:0,C18:1,C18:3), ratio versus control",[7],1.52*
same,"TAG (C16:0,C18:2), ratio versus control",[7],1.82*
same,"TAG (C18:2,C18:2), ratio versus control",[7],1.5*
same,"TAG (C18:3,C18:2,C18:1), ratio versus control",[7],1.63*
same,"TAG No 059, ratio versus control",[7],2.21*
same,"4-Hydroxyphenylpyruvate, ratio versus control",[8],0.62*
same,"Glycine, ratio versus control",[8],0.71*
same,"Lactate, ratio versus control",[8],0.61*
same,"Lysophosphatidylcholine (C16:0), ratio versus control",[8],0.98*
same,"Uric acid, ratio versus control",[8],0.64*
same,"3-Hydroxybutyrate, ratio versus control",[9],2.04*
same,"Galactose, lipid fraction, ratio versus control",[9],1.21
same,"Glutamine, ratio versus control",[9],1.31*
same,"Isoleucine, ratio versus control",[9],1.3*
same,"Leucine, ratio versus control",[9],1.27*
same,"4-Hydroxy-3-methoxyphenylglycol (HMPG), ratio versus control",[10],0.8
same,"Glucose, ratio versus control",[10],0.85*
same,"Lactate, ratio versus control",[10],0.46*
same,"Malate, ratio versus control",[10],0.55*
same,"Metanephrine, ratio versus control",[10],0.38*
same,"Pyruvate, ratio versus control",[10],0.36*
same,"Uric acid, ratio versus control",[10],0.68*
same,"4-Hydroxysphinganine (t18:0, Phytosphingosine), total, ratio versus control",[11],1.12
same,"Docosahexaenoic acid (C22:cis[4,7,10,13,16,19]6), ratio versus control",[11],1.24*
same,"Docosapentaenoic acid (C22:cis[7,10,13,16,19]5), ratio versus control",[11],1.76*
same,"Galactose, lipid fraction, ratio versus control",[11],1.21
same,"Phosphatidylcholine (C16:0,C16:0), ratio versus control",[11],1.07
same,"Phosphatidylcholine (C16:0,C20:5), ratio versus control",[11],1.1*
same,"Phosphatidylcholine (C16:1,C18:2), ratio versus control",[11],1.07
same,"Phosphatidylcholine No 02, ratio versus control",[11],1.31*
same,"TAG (C16:0,C16:1), ratio versus control",[11],2.14*
same,"TAG (C16:0,C18:1,C18:3), ratio versus control",[11],2.06*
same,"TAG (C16:0,C18:2), ratio versus control",[11],1.84*
same,"TAG (C18:2,C18:3), ratio versus control",[11],1.93*
same,"TAG (C18:3,C18:2,C18:1), ratio versus control",[11],1.27*
same,"TAG No 059, ratio versus control",[11],1.48*
same,"4-Hydroxyphenylpyruvate, ratio versus control",[12],0.36*
same,"Glycine, ratio versus control",[12],0.86*
same,"Lactate, ratio versus control",[12],0.46*
same,"Lysophosphatidylcholine (C16:0), ratio versus control",[12],0.97*
same,"Uric acid, ratio versus control",[12],0.68*
same,"4-Hydroxysphinganine (t18:0, Phytosphingosine), total, ratio versus control","rat, in vivo",1.46*
same,"Isoleucine, ratio versus control","rat, in vivo",1.46*
same,"Phosphatidylcholine No 02, ratio versus control","rat, in vivo",1.17*
same,"TAG (C16:0,C18:1,C18:3), ratio versus control","rat, in vivo",1.41*
same,"TAG (C18:2,C18:2), ratio versus control","rat, in vivo",1.41*
same,"TAG (C18:2,C18:3), ratio versus control","rat, in vivo",1.37*
same,"Valine, ratio versus control","rat, in vivo",1.12*
